Key:
[1] = test system: adenocarcinoma of the stomach, pancreas, and large bowel; conditions: combined FU and radiation vs radiation therapy alone, patients; cited from earlier work
L1210 leukemia = assay: Combination chemotherapy of advanced L1210 leukemia, cure rate (greater than 60-day survival); assay type: in vivo, mice; conditions: at least 1000 mg/kg
Procedure: Compound Pt-307 was administered usually in a dosage regimen of 5-60 mg/kg of body weight. This was given as a single dose or on Days 1, 5, and 9 in the standard National Institutes of Health 10-day testing.
CY was utilized at an optimum 50 mg/kg of body weight (range 25-75 mg/kg ) preferably given at Day 3 in the 10-day testing. 5-FU was utilized at 75 mg/kg of body weight (range 50-100 mg/kg) at Day 3. HU was used in a high dosage of at least 1000 mg/kg of body weight (range 1000-1500 mg/kg). The 5-FU and the HU were utilized as ternary compositions only with cyclophosphamide and the platinum compound.
Hydroxyurea is utilized in combination therapy at a high dosage of at least 1000 mg/kg of body weight (range 1000-1500 mg/kg).

L1210 cells = assay: In vitro growth inhibition of L1210 cells; assay type: cell-based, murine; conditions: growth inhibition by 50 percent
Description: (§1) The ID50 refers to the concentration of test compound required to
(§2) inhibit the growth of either the L1210 or L1210/DDP (NSC119875) resistant

[2] = test system: L1210/DDP (NSC119875) resistant cells; assay: In vitro growth inhibition of L1210/DDP (NSC119875 resistant) cells; assay type: cell-based, murine; conditions: growth inhibition by 50 percent
Description: as §1, §2

P388 leukemia = assay: In vivo activity against P388 leukemia; design: species or system murine; conditions: Days 1,5,9,13, NSC-119875 6.7 mg/kg, NSC-271674 20.0 mg/kg
Description: (§3) Data are expressed as survival in days and as a percentage increase in […]

P388/DDP leukemia = assay: In vivo activity against P388/DDP leukemia with acquired resistance to NSC-119875; design: species or system murine; conditions: Days 1,5,9,13, NSC-119875 6.7 mg/kg, NSC-271674 20.0 mg/kg
Description: P388/DDP refers to a tumor line with acquired resistance to NSC119875.
as §3

B16 melanoma = assay: Panel of mouse tumors: B16 melanoma, survival time assay; assay type: in vivo; conditions: ip tumor, D1-9 ip
Procedure: (§4) *Survival time (mean or median) assay
(§5) **Tumor weight inhibition assay.
(§6) Data are expressed as a percentage of the survival time in days or the
(§7) tumor weights in mg of the treated mice divided by the corresponding
(§8) values for the control mice. All testing was performed using both platinu
(§9) compounds in the same experiment. The criteria for activity are as
(§10) follows: confirmed activity (activity from two separate laboratories) of
(§11) % T/C of 150 or more for survival systems and 10% or less for tumor weigh
(§12) inhibition assays. Lower levels of activity such as a % T/C of 125 for
(§13) survival systems and 42% for tumor weight inhibition assays are considere
(§14) statistically significant.

L1210 = assay: Panel of mouse tumors: L1210, survival time assay; assay type: in vivo; conditions: ip tumor, D1-9 ip
Procedure: as §4, §6, §7, §8, §9, §10, §11, §12, §13, §14

Lewis lung = assay: Panel of mouse tumors: Lewis lung, survival time assay; assay type: in vivo; conditions: iv tumor, D1-9 ip
Procedure: as §4, §6, §7, §8, §9, §10, §11, §12, §13, §14

CD8Fl mammary = assay: Panel of mouse tumors: CD8Fl mammary, tumor weight inhibition assay; assay type: in vivo; conditions: sc tumor, Q7DX5 ip
Procedure: as §5, §6, §7, §8, §9, §10, §11, §12, §13, §14

Colon #38 = assay: Panel of mouse tumors: Colon #38, tumor weight inhibition assay; assay type: in vivo; conditions: sc tumor, D2,9 ip
Procedure: as §5, §6, §7, §8, §9, §10, §11, §12, §13, §14

SMILES: O=c1[nH]cc(F)c(=O)[nH]1 [5-fluorouracil]
- mean survival times [1]: significantly increased

SMILES: NC(=O)NO [Hydroxyurea, hydroxyurea]
- effectiveness when used alone (L1210 leukemia): only minimally effective

SMILES: N.N.[Cl][Pt][Cl] [NSC-119875, Cis-dichlorodiamino platinum II]
- ID50 L1210 (L1210 cells): 0.05 µg/mL
- ID50 L1210/DDP [2]: 2.50 µg/mL
- % ILS, P388 (P388 leukemia): 145%
- Survival (Days), P388 (P388 leukemia; control 13.3 days): 32.6 days
- % ILS, P388/DDP (P388/DDP leukemia): 41%
- Survival (Days), P388/DDP (P388/DDP leukemia; control 11.0 days): 15.5 days
- % T/C (survival time) (B16 melanoma; first line, optimal dose (mg/kg/inj): NSC-119875 2, NSC-271674 6.25): 193%
- % T/C (survival time) (B16 melanoma; second line, optimal dose (mg/kg/inj): NSC-119875 1, NSC-271674 1.56): 166%
- % T/C (survival time) (L1210; first line, optimal dose (mg/kg/inj): NSC-119875 2, NSC-271674 0.78): 151%
- % T/C (survival time) (L1210; second line, optimal dose (mg/kg/inj): NSC-119875 2, NSC-271674 1.56): 182%
- % T/C (survival time) (Lewis lung; first line, optimal dose (mg/kg/inj): NSC-119875 2, NSC-271674 3.12): 135%
- % T/C (survival time) (Lewis lung; second line, optimal dose (mg/kg/inj): NSC-119875 2, NSC-271674 6.25): 177%
- % T/C (tumor weight) (CD8Fl mammary; first line, optimal dose (mg/kg/inj): NSC-119875 8, NSC-271674 6.25): 0%
- % T/C (tumor weight) (CD8Fl mammary; second line, optimal dose (mg/kg/inj): NSC-119875 8, NSC-271674 25): 0%
- % T/C (tumor weight) (Colon #38; first line, optimal dose (mg/kg/inj): NSC-119875 8, NSC-271674 12.5): 42%
- % T/C (tumor weight) (Colon #38; second line, optimal dose (mg/kg/inj): NSC-119875 16, NSC-271674 50): 11%
